Experiments:
Assay type in all cases: in vivo, mouse
wild-type CD1 mice [1] = assay: Rotarod assay (motor function); settings: for time to fall from the rod, average across 3 trials on treatment day: FIG. 11, CBD 100 mg/kg, THC 1 mg/kg, 1:1, 100:1 given 60 min before, diazepam 5 mg/kg i.p. 30 min before; for latency to fall from the rod (motor function): FIG. 1A, first cohort, 3 consecutive 5 min trials, caffeine 100 mg/kg i.p. as positive control
Description: Locomotor function was assessed using the rotarod (see Assay description and relevant methods in Example 5). Mice are placed on a turning rod with increasing speed of rotation. Latency to fall from the rod is collected.
The rotarod assay was used to measure impaired motor function in mice. The assay is divided into three trials of 5 min each separated by 10 min of resting time. For each trial, mice are place on a stationary rod. Once the animal is in place, the rod rotation was initiated at a rate of 4 rpm per min, with increasing speed up to 60 rpm at 5 min. Each animal was trained for two days following this protocol and tested on the third day. The latency to fall from the rod was reported as the mean+/−SEM of all the mice for each trial.
A week after Y-maze, motor function was assessed using rotarod. Administration of drugs was performed 60 min prior to testing except for caffeine (positive control) which was administered 30 min prior to testing.
Animals used in this experiment were also used for light aversion and spatial memory, and were tested a third time in the rotarod assay. Briefly, two weeks after the last Y-maze run, animals were subjected to 3 consecutive days of rotarod assay. The first two days were used for habituation, then animals were divided in 6 different treatment groups: • negative control group: vehicle (sunflower oil), • positive control group: diazepam (5 mg/kg i.p.), • CBD (100 mg/kg), • THC (1 mg/kg), • 1:1 (1 mg/kg of both CBD and THC), and • 100:1 (100 mg/kg of CBD and 1 mg/kg of THC).
All treatments were administered 60 minutes prior to the third day of rotarod assay, except for diazepam which was administered 30 minutes prior to the assay.

wild-type CD1 mice [2] = assay: Light/dark assay, CGRP-induced light aversion (Test 1)
Description: All drugs were administered by intraperitoneal (i.p.) injection. CGRP and caffeine were administered at 10 μl/g bodyweight with a 30 g×0.5 needle. CBD, THC and the diverse ratios of CBD:THC were administered at 3.3 μl/g bodyweight with a 23 g×0.5 needle. Rat α-CGRP (Sigma-Aldrich, USA) was administered at 0.1 mg/kg, caffeine (Sigma-Aldrich, USA) was administered at 100 mg/kg, and both were diluted in vehicle, Dulbecco PBS (Hyclone, GE Healthcare Life Science, USA). CBD was administered at 1 or 100 mg/kg, THC was administered at 1 mg/kg, and both were diluted in vehicle sunflower oil (Sigma-Aldrich, USA) Animals were gently held but not anesthetized during injection. Mice were allowed to recover for 30 to 60 min in their home cages before testing (see figure legend and experimental design for precisions).
(§1) The light/dark assay was used to measure the animals' aversion to bright light, which is a surrogate for photophobia. Briefly, mice are placed individually in light/dark boxes that consist in two compartments, one brightly lit and the other not lit, black and fully enclosed. Mice can move freely in between them. An infrared beam tracking system (Med Associates) monitors and quantifies the behavior. Light-aversive animals will spend more time in the dark compartment than naïve animals Data were collected using Activity Monitor version 7.06 from twelve chambers as previously described. Mice were pre-exposed to the chamber once (baseline, data not shown) to reduce exploratory drive, then tested with bright light (25,000 lux). Data were collected for 30 min and analyzed in sequential 5 min intervals. The time in light was reported as the mean+/−SEM of all the mice at each interval and as the mean+/−SEM of the average time per interval for each individual mouse.
Test 1: test the efficacy of CBD and/or THC on CGRP-induced light aversion. Drug administration was performed i.p. by ASW or AK, 60 minutes prior to testing. Thirty minutes before testing, animals were injected a second time with CGRP (0.1 mg/kg) in order to induce the migraine-like state. Only one group was administered with PBS and represents the negative control in this run. The group that received sunflower oil+CGRP represents the positive control. Those injections were also performed i.p by ASW or AK. Thirty minutes later, animals were placed in the light aversion chambers, and tested for 30 minutes.

wild-type CD1 mice [3] = assay: Y-maze assay (spatial memory); settings: treatments 55 minutes prior to the first trial; CBD 100 mg/kg, THC 1 mg/kg, 1:1, 100:1
Description: The Y-maze assay was used to measure spatial memory using a 3-arm maze. The assay is divided into two trials separated by an intertrial period. During the first trial, one arm (novel arm) is closed, and mice are left to explore the two other arms for 5 min. Mice are then placed back in their home cages for the 2 min intertrial period. During the second trial, mice are able to explore all arms. A mouse with a good spatial memory will enter the previously unexplored (novel) arm more frequently than the other arms. A mouse with poor spatial memory will show no preference. The number of entries and time in the novel arm during the second trial was reported as the mean+/−SEM of all the mice at each interval (30 sec) and as the mean+/−SEM of the total time for the trial for each individual mouse.
A week after Test 2, spatial memory was assessed using Y-maze. Administration of drugs was performed 60 min prior to testing except for CGRP (positive control) which was administered 30 min prior to testing.
Animals used in this experiment were also used for light aversion (and later rotarod). […]
All treatments were administered 55 minutes prior to the first 5-minute trial, and therefore 62 minutes before the second 2-minute trial. No effect of CBD, THC and CBD:THC ratios on spatial memory was assessed by the Y-maze.

wild-type CD1 mice [4] = assay: Light/dark assay without CGRP trigger (Test 2); settings: FIG. 4, absence of the CGRP trigger; average per 5 minutes
Excerpt: as §1
Test 2: test the possible effects of CBD and/or THC by themselves on light aversion. Animals were given a week to recover. Then the same groups were used for Test 2, and only the second injection was reversed. All groups received vehicle 30 minutes before testing, except for the first group that was administered with CGRP and was the positive control for this test. […]

[5] = FIG. 5A, all mice, co-administered with CGRP
[6] = FIGS. 3A-3B, all mice, drugs i.p. 60 min, CGRP 0.1 mg/kg 30 min before testing, CBD 100 mg/kg, THC 1 mg/kg

Molecule | time to fall from the rod, average across 3 trials on treatment day (wild-type CD1 mice [1]) | time spent resting in the dark (CGRP-induced increase) (wild-type CD1 mice [2]; [5]) | time spent in the light (CGRP-induced light aversion) (wild-type CD1 mice [2]; [6]) | spatial memory: number of entries and time spent in the novel arm during trial 2 (wild-type CD1 mice [3]) | latency to fall from the rod (motor function) (wild-type CD1 mice [1]) | other results
C=C(C)[C@@H]1CCC(C)=C[C@H]1c1c(O)cc(CCCCC)cc1O [CBD, cannabidiol] | yielded similar results as the vehicle group | neither CBD alone nor the 1:1 ratio reversed this increased resting time | failed to reverse the CGRP-induced decrease in time spent in the light | No effect | – | –
CCCCCc1cc(O)c2c(c1)OC(C)(C)[C@@H]1CCC(C)=C[C@@H]21 [THC, tetrahydrocannabinol] | showed increases in time to fall that were not significant | seem to attenuate the phenotype | failed to reverse the CGRP-induced decrease in time spent in the light | No effect | seemed to increase motor function (trend only) | time spent resting in the dark (CGRP-induced increase) (wild-type CD1 mice [2]; FIG. 5C, male mice): seemed to have an effect
Cn1c(=O)c2c(ncn2C)n(C)c1=O [caffeine] | – | – | – | – | didn't yield the expected results | –
CN1C(=O)CN=C(c2ccccc2)c2cc(Cl)ccc21 [diazepam] | showed a robust decrease in time to fall from the rod | – | – | – | – | latency to fall from the rod (wild-type CD1 mice [1]; FIG. 1B, rotarod trial with diazepam as positive control): produced the expected increased time to fall
calcitonin gene-related peptide [CGRP] | – | induces a significant increase in the time spent resting in the dark | induces a significant decrease in time spent in the light | – | – | time spent in the light (CGRP-induced light aversion) (wild-type CD1 mice [2]; FIG. 3D, male mice): inducing a strong and significant decrease of the time spent in the light compartment; time spent resting in the light compartment (wild-type CD1 mice [2]; FIG. 6, data as a function of time): does not increase the time spent resting in the light compartment; time spent in the light (CGRP-induced light aversion) (wild-type CD1 mice [2]; FIG. 7, experiment with 30:1, 100:1 as control ratio): induces a significant decrease in time spent in the light; average time in the light (wild-type CD1 mice [4]): spending less time in the light than the veh+veh mice

Source: US12029721B2, “Compositions comprising cannabinoids and methods of use” (Schedule 1 Therapeutics, Inc., priority 2021, dated 2024)
